Assays:
Assay in all cases: relative viability (nuclei count vs DMSO), 5 days (fraction); higher = more cells survive
Carboplatin + Navitoclax = compound: C1CC(C1)(C(=O)O)C(=O)O.[NH2-].[NH2-].[Pt+2] [Carboplatin] + CC1(C)CCC(c2ccc(Cl)cc2)=C(CN2CCN(c3ccc(C(=O)NS(=O)(=O)c4ccc(N[C@H](CCN5CCOCC5)CSc5ccccc5)c(S(=O)(=O)C(F)(F)F)c4)cc3)CC2)C1 [Navitoclax] (partner 0.5 µM)
Summary of the method: (§1)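 Lung cancer cell lines in 1536-well plates got either a single drug or a fixed anchor-drug dose together with five library-drug doses (not always all listed) in √10 steps, by pin tool, on the day after seeding. Nuclei were counted after 5 days, and relative viability is the treated-to-vehicle ratio of nuclei counts. Values are medians of duplicate plates.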

GSK126 + Vorinostat = compound: CC[C@H](C)N1C=C(C2=C(C=C(C=C21)C3=CN=C(C=C3)N4CCNCC4)C(=O)NCC5=C(C=C(NC5=O)C)C)C [GSK126] + O=C(CCCCCCC(=O)Nc1ccccc1)NO [Vorinostat] (partner 1 µM)
Summary of the method: as §1

Carboplatin + Vorinostat = compound: C1CC(C1)(C(=O)O)C(=O)O.[NH2-].[NH2-].[Pt+2] [Carboplatin] + O=C(CCCCCCC(=O)Nc1ccccc1)NO [Vorinostat] (partner 1 µM)
Summary of the method: as §1

| Cell Line | relative viability (Carboplatin + Navitoclax; first compound 0.08 µM) | relative viability (Carboplatin + Navitoclax; first compound 0.8 µM) | relative viability (Carboplatin + Navitoclax; first compound 2.53 µM) | relative viability (Carboplatin + Navitoclax; first compound 8 µM) | relative viability (GSK126 + Vorinostat; first compound 0.08 µM) | relative viability (GSK126 + Vorinostat; first compound 0.253 µM) | relative viability (GSK126 + Vorinostat; first compound 0.8 µM) | relative viability (GSK126 + Vorinostat; first compound 2.53 µM) | relative viability (GSK126 + Vorinostat; first compound 8 µM) | relative viability (Carboplatin + Vorinostat; first compound 0.08 µM) | relative viability (Carboplatin + Vorinostat; first compound 0.253 µM) | relative viability (Carboplatin + Vorinostat; first compound 0.8 µM) | relative viability (Carboplatin + Vorinostat; first compound 2.53 µM) | relative viability (Carboplatin + Vorinostat; first compound 8 µM) | relative viability (Carboplatin + Navitoclax; first compound 0.253 µM) |
| --- | --- | --- | --- | --- | --- | --- | --- | --- | --- | --- | --- | --- | --- | --- | --- |
| LCLC-97TM1 | 0.401 | 0.424 | 0.391 | 0.33 | 0.771 | 0.8 | 0.717 | 0.812 | 0.691 | 0.753 | 0.749 | 0.661 | 0.504 | 0.654 | – |
| LCLC-103H | – | – | – | – | 0.888 | 0.906 | 0.77 | 0.786 | 0.761 | 0.804 | 0.785 | 0.72 | 0.768 | 0.692 | – |
| LK-2 | 0.905 | 0.74 | 0.74 | 0.995 | 0.239 | 0.233 | 0.411 | 0.279 | 0.298 | 0.154 | 0.299 | 0.273 | 0.306 | 0.31 | 1.03 |
| LOU-NH91 | 0.831 | 0.667 | 0.706 | 0.624 | 0.909 | 0.878 | 0.781 | 0.957 | 0.905 | 1.03 | 0.937 | 0.949 | 0.894 | 0.734 | 0.642 |
| LU99A | 0.842 | 0.829 | 0.774 | 0.581 | 0.506 | 0.484 | 0.443 | 0.404 | 0.561 | 0.507 | 0.577 | 0.485 | 0.418 | 0.292 | 0.881 |
| LXF-289 | 0.933 | 0.932 | 0.903 | 0.927 | 0.8 | 0.832 | 0.718 | 0.787 | 0.707 | 0.788 | 0.787 | 0.775 | 0.793 | 0.713 | 0.982 |
| NCI-H23 | 0.887 | 0.789 | 0.835 | 0.588 | 0.936 | 0.627 | 0.639 | 0.632 | 0.527 | 0.658 | 0.632 | 0.522 | 0.62 | 0.343 | 0.9 |
| NCI-H322M | 1.26 | 1.18 | 1.13 | 1.05 | 0.838 | 0.884 | 0.866 | 0.939 | 0.939 | 0.994 | 0.855 | 0.928 | 0.91 | 0.709 | 1.22 |
| NCI-H358 | – | – | – | – | 0.767 | 0.708 | 0.644 | 0.68 | 0.672 | 0.735 | 0.668 | 0.681 | 0.664 | 0.53 | – |
| NCI-H441 | 0.657 | 0.447 | 0.545 | 0.526 | 1.04 | 0.59 | 0.714 | 0.673 | 0.791 | 0.865 | 0.835 | 0.588 | 0.785 | 0.369 | 1.19 |
| NCI-H460 | 1.13 | 1.03 | 0.986 | 0.358 | 0.89 | 0.718 | 0.75 | 0.699 | 0.656 | 0.761 | 0.629 | 0.582 | 0.235 | 0.076 | 1.11 |

Source: the supplement of paper PMC10307832
